{"source": "paper PMC3739823", "about": "“Structural Guided Scaffold Phage Display Libraries as a Source of Bio-Therapeutics” (PLoS ONE, 2013)", "key": {"recombinant αvβ6": {"system": "recombinant αvβ6", "assay": "Monoclonal scFv screening ELISA / binding to immobilised recombinant αvβ6", "conditions": "specific binding to recombinant αvβ6, summary statement", "description": "Figure 2 Screening of phage clones isolated from the α-helix & 3_10-helix libraries. A) Monoclonal scFv screening ELISA testing 96 clones in each library. Bacterial supernatants were added to 5 µg/ml recombinant αvβ6 immobilized onto ELISA plate and then probed with mouse anti-Myc antibody followed by anti-mouse-HRP. B) Clones with unique sequences were screened for binding cellular αvβ6 by flow cytometry. […] For clarity the relevant αvβ6-specific mouse monoclonal antibody 10D5 (grey) and the negative control IgG (black) histograms are also shown in each plot. […] TEXT PRINTED IN THE PICTURE: (C) D25: 30kDa | (C) D34: 30kDa\nThe α-helix and 3_10 libraries were each rescued separately KM13 helper phage as described previously. For selection, we used in parallel each library separately as well as mixed alpha helix and 3_10 libraries. The initial phage selection was performed using immobilised recombinant αvβ6 protein as described previously, [29] and http://www.lifesciences.sourcebioscience.com/ media/143421/tomlinsonij.pdf. After two rounds of selection on immobilised αvβ6 we then selected the libraries on cell-expressed αvβ6 using A375Pβ6 and A375PPuro cell lines, for αvβ6-positive and αvβ6-negative selection, respectively, [22]. First line screening were done by ELISA using 5 µg/ml immobilised recombinant αvβ6 as described."}, "[1]": {"assay": "Size-exclusion chromatography (FPLC) of purified scFv"}, "αvβ6-expressing cells": {"system": "αvβ6-expressing cells", "assay": "Internalisation assay, αvβ6-expressing cells (confocal microscopy)", "conditions": "for cellular internalisation in αvβ6-expressing cells: scFv 4 uM or biotinylated peptide 100 nM, confocal microscopy; for cellular internalisation in αvβ6-expressing cells / nuclear localisation / time of efficient internalisation: 37°C; for nuclear localisation / time of efficient internalisation: biotinylated peptide 100 nM"}, "cellular αvβ6": {"system": "cellular αvβ6", "assay": "Inhibition of A20FMDV2 binding to cellular αvβ6 (flow cytometry)", "format": "cell-based", "conditions": "0.1 and 1.0 µM, 10 min pre-incubation, 40 min with 10 nM biotinylated A20FMDV2; % of MFI without inhibitor"}, "A375Ppuro cells": {"system": "A375Ppuro cells", "assay": "Flow cytometry binding to αvβ6-negative cells", "format": "cell-based", "conditions": "for binding to αvβ6-negative cells: flow cytometry, A375Ppuro (αvβ3, αvβ5, αvβ8, α5β1 positive), dose dependent binding analysis, 0.1 or 1 uM; for binding to αvβ6-negative cells (Figure S1): biotinylated peptide at 1 uM, A375Ppuro, rabbit anti-biotin IgG then anti-rabbit IgG-Alexafluor 488", "description": "(§1) The adherent melanoma cell lines A375Pβ6 and A375Ppuro, described previously were cultured in Dulbecco's Modified Eagles' Medium (DMEM) supplemented with 10% Foetal Calf Serum (FCS). The human oral squamous cell carcinoma VB6, which was engineered to express high levels of αvβ6, was grown in Keratinocyte Growth Medium as described.\n(§2) Purified scFv were tested for specificity for αvβ6 by flow cytometry using the isogenic pairs of cell lines, A375Pβ6 and A375Ppuro, or DX3β6 and DX3puro. Each pair expresses similar levels of four RGD-binding integrins (αvβ3, αvβ5, αvβ8, α5β1) but only A375Pβ6 and DX3β6 express αvβ6 [14], [22], [30]. Briefly, cells were detached with trypsin/EDTA, rinsed twice in ice-cold wash buffer (0.1% BSA/DMEM/0.1% NaN3) and approximately 2×10^5 cells re-suspended in 50 µl of wash buffer per sample. In between all incubation steps, all samples were washed twice with wash buffer unless otherwise stated. Cells were incubated on ice for 1 hr with 0.1 or 1 uM purified scFv of peptide, washed twice. For scFv, cells were then incubated for 1 hr on ice with mouse anti-Myc antibody (clone 9E10, Santa Cruz) at 1∶100. After washing, bound antibody was detected with anti-mouse IgG-Alexaflour 488 (1∶250 for 1 h; Molecular Probes), on ice. […] Cells were analysed using the FACSCalibur (Beckton Dickinson). Cell expression of αvβ6 integrin was detected with mouse monoclonal antibody (clone 10D5, 10 µg/ml; Millipore) and non-specific (control) binding with non-immune class matched IgG.\nSupplementary file pone.0070452.s001.tif: Figure S1 A375Ppuro cells were incubated with biotinylated D25p or D34p at 1 uM. Bound peptide was detected with rabbit anti-biotin IgG (1∶200), followed by anti-rabbit IgG-Alexafluor 488 (1∶250; Molecular Probes). […] Black histograms represent controls where peptides were omitted. (TIF) Click here for additional data file."}, "[2]": {"system": "A375Pβ6 cells (cellular αvβ6)", "assay": "Flow cytometry binding to αvβ6-expressing cells", "format": "cell-based", "conditions": "for binding to αvβ6-expressing cells: flow cytometry, dose dependent binding analysis, 0.1 or 1 uM, 1 hr on ice, MFI", "description": "as §1, §2"}, "[3]": {"system": "αvβ6-dependent adhesion of carcinoma cells to immobilised fibronectin", "assay": "αvβ6-dependent adhesion to fibronectin (Picogreen adhesion assay)", "format": "cell-based", "conditions": "for inhibition of αvβ6-dependent adhesion to fibronectin: fibronectin 10 ug/ml, 30 min at 37°C, quadruplicate, repeated at least 2-3 times", "description": "All adhesion assays were performed in quadruplicate and repeated at least 2–3 times. In a 96-well plate format, test wells were coated with Fibronectin (10 ug/ml/PBS) and negative control wells were coated with 0.1% BSA (bovine serum albumin)/PBS. After incubation at 37°C for 1 hour, plates were washed in PBS twice and blocked with 0.1% BSA/PBS for 30 mins at 37°C. Following a PBS rinse, cells were seeded into the wells, the plate resting on ice to avoid dehydration and to ensure an initial uniform temperature for the experiment. Purified scFv or peptide was added (25 ul) to the wells at the desired concentrations, before adding 1.5×10^4 cells (25 ul) per well. In some experiments, cells (1.5×10^4) were pre-treated with β1 blocking antibody AIIB2 at 10 ug/ml before seeding into test wells to block the β1-dependent fibronectin adhesion. To determine percentage adhesion, standard curves were generated by plating 0–2.5×10^4 cells in separate wells. After incubating plates at 37°C for 30′ plates were washed twice in 1 mM CaCl2/0.5 mM MgCl2/PBS and transferred into −80°C for 15 mins. Adherent cells were quantified using a Picogreen kit (Invitrogen) and analysed on a fluorescence reader (FLUOstar Optima, BMG Labtech Ltd, Bucks, UK)."}, "αvβ6-negative cells": {"system": "αvβ6-negative cells", "assay": "Internalisation assay, αvβ6-negative cells (confocal microscopy)", "conditions": "scFv 4 uM or biotinylated peptide 100 nM, 37°C"}}, "note": "No end group written: not given here."}
{"substance": "D25scFv: human scFv clone with synthetic VH-CDR3 encoding RGD α-helix, EP RGDLRTLAAREKRNFNETLAR LQEKGI", "values": [{"measurement": "binding to recombinant αvβ6", "setting": "recombinant αvβ6", "result": "specific binding to recombinant and cellular αvβ6"}, {"measurement": "size-exclusion lower peaks elution volume", "setting": "[1]; HiPrep 16/60 sephacryl S-200, PBS, 0.3 ml/min, 280 nm, scFv dimers and tetramers", "result": "45 to 60", "unit": "mL"}, {"measurement": "size-exclusion major peak, apparent molecular weight", "setting": "[1]; HiPrep 16/60 sephacryl S-200, PBS, calibration curve", "result": 30, "unit": "kDa"}, {"measurement": "oligomerisation by size-exclusion chromatography", "setting": "[1]; lower peaks at 45–60 ml, PBS", "result": "scFv dimers and tetramers"}, {"measurement": "cellular internalisation in αvβ6-expressing cells", "setting": "αvβ6-expressing cells", "result": "cellular internalisation in αvβ6-expressing cells"}, {"measurement": "cellular localisation at 0 minutes", "setting": "αvβ6-expressing cells; scFv 4 uM, 0 minutes, αvβ6-expressing cells", "result": "localised at the cell surface"}, {"measurement": "cellular localisation at 45 minutes", "setting": "αvβ6-expressing cells; scFv 4 uM, 37°C for 45 minutes, αvβ6-expressing cells", "result": "localised within the cell cytoplasm and nucleus"}, {"measurement": "inhibition of A20FMDV2 binding to cellular αvβ6", "setting": "cellular αvβ6", "result": "dose-dependent inhibition"}, {"measurement": "binding to αvβ6-negative cells", "setting": "A375Ppuro cells", "result": "not A375Ppuro"}, {"measurement": "comparison of binding to cellular αvβ6, D34scFv versus D25scFv", "setting": "[2]; discussion statement", "result": "no difference in binding"}, {"measurement": "binding to αvβ6-expressing cells", "setting": "[2]", "result": "αvβ6-specific binding to A375Pβ6 cells"}, {"measurement": "binding to cellular αvβ6, flow cytometry verification", "setting": "[2]; scFv at 100, 10 and 1 µg/ml", "result": "Binding to cellular αvβ6"}, {"measurement": "inhibition of αvβ6-dependent adhesion to fibronectin", "setting": "[3]", "result": "significant concentration-dependent inhibition"}, {"measurement": "comparison of adhesion inhibition, D25scFv vs D34scFv", "setting": "[3]; p>0.05", "result": "similarly inhibited"}, {"measurement": "cellular internalisation in αvβ6-negative cells", "setting": "αvβ6-negative cells", "result": "not in αvβ6-negative cells"}]}
{"substance": "EP RGDLRTLAAREKRNFNETLAR LQEKGI [D25p, VH-CDR3 derived peptide of D25scFv, 29 amino-acids]", "values": [{"measurement": "binding to recombinant αvβ6", "setting": "recombinant αvβ6", "result": "specific binding to recombinant and cellular αvβ6"}, {"measurement": "inhibition of A20FMDV2 binding to cellular αvβ6", "setting": "cellular αvβ6", "result": "dose-dependent inhibition"}, {"measurement": "binding to αvβ6-negative cells", "setting": "A375Ppuro cells", "result": "not A375Ppuro"}, {"measurement": "binding to αvβ6-expressing cells", "setting": "[2]", "result": "αvβ6-specific binding to A375Pβ6 cells"}, {"measurement": "comparison of inhibition of αvβ6-cellular function, D25p vs D34p", "setting": "[3]; discussion statement", "result": "more efficient inhibitor of αvβ6-cellular function than D34p"}, {"measurement": "inhibition of αvβ6-dependent adhesion to fibronectin", "setting": "[3]", "result": "significant concentration-dependent inhibition"}, {"measurement": "comparison of adhesion inhibition, D25p vs D34p", "setting": "[3]; p = 0.0156, Wilcoxon matched-pairs signed rank test", "result": "significantly stronger than D34p"}]}
{"substance": "QP RGDLRELAARSEAQLQEKGI [D34p, VH-CDR3 derived peptide of D34scFv, 22 amino-acids]", "values": [{"measurement": "binding to recombinant αvβ6", "setting": "recombinant αvβ6", "result": "specific binding to recombinant and cellular αvβ6"}, {"measurement": "inhibition of A20FMDV2 binding to cellular αvβ6", "setting": "cellular αvβ6", "result": "dose-dependent inhibition"}, {"measurement": "binding to αvβ6-negative cells (Figure S1)", "setting": "A375Ppuro cells", "result": "no significant binding"}, {"measurement": "binding to αvβ6-negative cells", "setting": "A375Ppuro cells", "result": "not A375Ppuro"}, {"measurement": "binding to αvβ6-expressing cells", "setting": "[2]", "result": "αvβ6-specific binding to A375Pβ6 cells"}, {"measurement": "inhibition of αvβ6-dependent adhesion to fibronectin", "setting": "[3]", "result": "significant concentration-dependent inhibition"}]}
{"substance": "biotinylated-D25p: biotinylated D25p peptide (EPRGDLRTLAAREKRNFNETLARLQEKGI; also: biotinylated, position not given here)", "values": [{"measurement": "nuclear localisation", "setting": "αvβ6-expressing cells; αvβ6-expressing cells", "result": "no nuclear localisation"}, {"measurement": "time of efficient internalisation", "setting": "αvβ6-expressing cells; αvβ6-expressing cells", "result": "30 to 45", "unit": "min"}, {"measurement": "cellular internalisation in αvβ6-expressing cells", "setting": "αvβ6-expressing cells", "result": "cellular internalisation in αvβ6-expressing cells"}, {"measurement": "binding to αvβ6-negative cells (Figure S1)", "setting": "A375Ppuro cells", "result": "no significant binding"}, {"measurement": "cellular internalisation in αvβ6-negative cells", "setting": "αvβ6-negative cells", "result": "not in αvβ6-negative cells"}]}
{"substance": "biotinylated-D34p: biotinylated D34p peptide (QPRGDLRELAARSEAQLQEKGI; also: biotinylated, position not given here)", "values": [{"measurement": "nuclear localisation", "setting": "αvβ6-expressing cells; αvβ6-expressing cells", "result": "no nuclear localisation"}, {"measurement": "time of efficient internalisation", "setting": "αvβ6-expressing cells; αvβ6-expressing cells", "result": "30 to 45", "unit": "min"}, {"measurement": "cellular internalisation in αvβ6-expressing cells", "setting": "αvβ6-expressing cells", "result": "cellular internalisation in αvβ6-expressing cells"}, {"measurement": "cellular internalisation in αvβ6-negative cells", "setting": "αvβ6-negative cells", "result": "not in αvβ6-negative cells"}]}
